From US10183039B2, “Methods for the production of collagen IV” (Vanderbilt University, priority 2013, dated 2019)

What was measured:
peroxidasin = biological target: T1, peroxidasin (Mus musculus, UniProt Q3UQ28); assay: In vitro basement membrane (uncrosslinked PFHR-9 matrix) reaction with halides and H2O2; type: biochemical
T1 construct: Cultured murine PFHR9 cells synthesize collagen IV networks that contain sulfilimine crosslinks due to the activity of PXDN; endogenous in cells; host or cells: PFHR-9 cells (isolated matrix from KI-treated culture)
T1 sequence (Q3UQ28 24-1475): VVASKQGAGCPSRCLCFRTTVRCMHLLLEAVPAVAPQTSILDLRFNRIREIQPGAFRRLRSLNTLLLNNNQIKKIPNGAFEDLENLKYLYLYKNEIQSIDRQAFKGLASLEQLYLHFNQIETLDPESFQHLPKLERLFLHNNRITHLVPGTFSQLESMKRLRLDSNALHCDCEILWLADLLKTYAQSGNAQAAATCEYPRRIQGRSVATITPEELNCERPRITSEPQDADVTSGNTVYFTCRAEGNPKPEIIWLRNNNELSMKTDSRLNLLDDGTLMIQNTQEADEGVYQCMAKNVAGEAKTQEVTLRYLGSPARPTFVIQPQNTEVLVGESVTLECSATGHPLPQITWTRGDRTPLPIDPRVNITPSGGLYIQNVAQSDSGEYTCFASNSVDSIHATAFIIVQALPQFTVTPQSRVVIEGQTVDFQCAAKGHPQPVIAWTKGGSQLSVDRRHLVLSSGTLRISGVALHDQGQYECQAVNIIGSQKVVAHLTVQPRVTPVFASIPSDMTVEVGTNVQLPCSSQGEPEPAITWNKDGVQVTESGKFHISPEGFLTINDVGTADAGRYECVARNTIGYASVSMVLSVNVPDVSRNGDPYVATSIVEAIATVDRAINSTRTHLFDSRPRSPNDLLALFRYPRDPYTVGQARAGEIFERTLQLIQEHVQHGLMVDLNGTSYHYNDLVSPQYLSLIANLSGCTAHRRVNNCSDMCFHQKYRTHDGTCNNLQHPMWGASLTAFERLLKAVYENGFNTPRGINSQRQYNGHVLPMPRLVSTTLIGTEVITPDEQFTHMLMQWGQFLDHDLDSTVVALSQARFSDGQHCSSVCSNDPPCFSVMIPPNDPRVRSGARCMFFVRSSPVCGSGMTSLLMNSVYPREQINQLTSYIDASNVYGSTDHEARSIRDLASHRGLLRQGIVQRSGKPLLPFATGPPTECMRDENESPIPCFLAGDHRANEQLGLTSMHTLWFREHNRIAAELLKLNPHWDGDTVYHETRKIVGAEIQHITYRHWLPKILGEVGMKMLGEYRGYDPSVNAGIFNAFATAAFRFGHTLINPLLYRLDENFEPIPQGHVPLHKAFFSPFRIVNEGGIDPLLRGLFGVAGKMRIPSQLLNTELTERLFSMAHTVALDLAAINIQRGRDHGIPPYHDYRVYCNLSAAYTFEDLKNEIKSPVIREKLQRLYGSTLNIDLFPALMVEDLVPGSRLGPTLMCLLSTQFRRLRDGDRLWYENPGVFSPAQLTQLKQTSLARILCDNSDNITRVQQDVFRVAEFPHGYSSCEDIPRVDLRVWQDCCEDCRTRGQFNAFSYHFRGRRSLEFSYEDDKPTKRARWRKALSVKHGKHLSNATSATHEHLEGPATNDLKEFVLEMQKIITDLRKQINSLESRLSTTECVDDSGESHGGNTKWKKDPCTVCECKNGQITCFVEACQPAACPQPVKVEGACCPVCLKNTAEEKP
Procedure: (FIG. 8A) Matrix pellets isolated from KI-treated PFHR9 cell culture were extensively washed into 10 mM phosphate buffer (pH 7.4) supplemented with 100 mM KF to maintain ionic strength. Potassium salts of Cl— or Br— were added in indicated amounts. 1 hr reactions at 37° C. were initiated by addition of H2O2 to 1 mM and stopped by freezing at −20° C. Coomassie blue-stained gels after collagenase digestion of the samples and SDS-PAGE (FIG. 8B) Schematic of Br-Free chloride salt purification apparatus and setup. […] Reagent KCl was commercially obtained and unaltered prior to analysis. 100 mM solutions were made with 18MΩ deionized water. (FIG. 8C) Coomassie blue stained gel of collagenase digested PFHR-9 matrix reaction assay. Reaction buffered contained 10 mM phosphate buffer (pH 7.4), 100 mM Br-Free or Commercially obtained reagent grade KCl, as well as 1 mM H2O2 and 200 μM PHG where appropriate. (FIG. 8D) SDS-PAGE and coomassie blue stain of hPXDN (27.25 nM) and NC1 domain (1.3 μM) reaction and subsequent densiometric quantitation of S═N bond formation stiochiometry in response to NaBr addition. hPXDN and PFHR-9 NC1 domain were prepared and purified as described (5), except with all buffers for all purification steps (dialysis, chromatography, gradient ultracentrifugation) made with Br-Free chloride salts. Reactions were run for 10 minutes at 37° C. with 10 μM H2O2 as the terminal oxidant. Dose-response curve run in the presence of 1× Br-Free PBS. Reactions were quenched with 0.2 mg/ml Catalase, 20 mM Methionine, and 1 mM PHG. EC50 value±95% C.I. from two independent experiments with each data point plotted and fit.
Uncrosslinked PFHR9 matrix was extensively washed into 10 mM phosphate buffer (pH 7.4) that was supplemented with 100 mM KF to maintain ionic strength. One hour reactions at 37° C. were initiated by addition of H2O2 to 1 mM and stopped by freezing at −20° C. […] Samples were digested with collagenase at 37° C. overnight and visualized by SDS-PAGE using 12% gels under non-reducing conditions with Coomassie staining.
PFHR-9 cells treated with potassium iodide (1-10 mM) to eliminate NC1 hexamer crosslinks were used for basement membrane isolation. To test halide dependency, the inventors established halide-free conditions by washing extensively (at least five times) with 10 mM sodium phosphate pH 7.4. To try to extract or inactivate endogenous basement membrane peroxidase activity, the inventors extracted the matrix preparation twice with 2M guanidine-Cl, 50 mM Tris-Cl pH 7.5 and 10 mM EDTA-Na pH 8 followed by extensive washing with 1×PBS. Basement membrane was resuspended in the desired buffer with or without cofactors and inhibitors to examine in vitro NC1 crosslinking under various conditions. Basement membranes were collagenase solubilized to delineate collagen IV NC1 sulfilimine crosslink formation with SDS-PAGE and Coomassie blue staining membrane was isolated, washed extensively and resuspended in 1×PBS. Azide (0-10 mM) and 1 mM H2O2 were added and allowed to react for 1 h at 37° C. The matrix was pelleted, washed extensively with 1×PBS and solubilized with 1×PBS plus 2% (w/v) SDS. Solubilized proteins were reacted with 100 μM Tris[(1-benzyl-1H-1,2,3-triazol-4-yl)methyl]amine (Anaspec), 1 mM Tris(2-carboxyethyl)phosphine hydrochloride (ThermoFisher Pierce), 1 mM cupric sulfate and 100 μM biotin alkyne (PEG4 carboxamide-propargyl biotin; Life Technologies) for 1 h at 37° C. Click chemistry reactions were quenched with 1 mM 3′-azido-3′-deoxythymidine (Sigma). For avidin-HRP detection, samples were electrophoresed under reducing conditions, transferred to nitrocellulose membranes and probed with streptavidin-HRP according to manufacturer instructions (ThermoFisher Pierce). To isolate biotinylated proteins, the inventors precipitated click reaction products with two volumes of cold acetone to remove reactants, washed them with 70% (v/v) acetone and then resolubilized them in 1×PBS plus 2% SDS.

[1] = increased salt concentrations (Fairbanks and Burch, 1970); cited from earlier work

For `Cl` [chloride], the “halide concentration permitting enzymatic crosslinking within purified matrix” value (peroxidasin) was 100 mM, the “S═N bond formation in isolated matrix” value (peroxidasin; 10 mM phosphate pH 7.4, 100 mM KF, 1 mM H2O2, 1 h at 37° C.) was “remained inactive until 100 mM” and the “dimer formation with bromide-free chloride as halide source” value (peroxidasin; 100 mM Br-free chloride salt, 1 mM H2O2, isolated PFHR-9 matrix) was “insufficient for the reaction”. For the same molecule, the “halide concentration at which crosslinked dimeric subunits formed” value (peroxidasin; H2O2 added to uncrosslinked basement membrane without other halides (FIG. 3B)) was roughly 100 mM and the “half-life in the fly” value [1] was roughly 5 h.
